Activity calls are given as the source filed them. The calls are words filed in the database; no cut-off is given here.
Legend:
[1] = system: Vaccinia virus WR; experiment: Antiviral activity against Vaccinia virus WR ATCC VR-1354 infected through intraperitoneal route in BALB/c mouse assessed as reduction of viral load in liver at 100 mg/kg, po qd measured after 3 days postinfection by RT-PCR analysis relative to control; type: functional, organism-based; parameters: dose 100 mg/kg
[2] = system: Vaccinia virus WR; experiment: Antiviral activity against Vaccinia virus WR ATCC VR-1354 infected through dermal scarification route in BALB/c mouse assessed as protection against virus-induced systemic disease symptoms at 100 mg/kg, po qd measured after 9 days postinfection; type: functional, organism-based; parameters: dose 100 mg/kg
[3] = system: Vaccinia virus WR; experiment: Antiviral activity against Vaccinia virus WR ATCC VR-1354 infected through percutaneous route in BALB/c mouse assessed as reduction of viral load in brain at 100 mg/kg, po qd measured after 13 days postinfection by RT-PCR analysis relative to control; type: functional, organism-based; parameters: dose 100 mg/kg
[4] = system: Vaccinia virus WR; experiment: Antiviral activity against Vaccinia virus WR ATCC VR-1354 infected through percutaneous route in BALB/c mouse assessed as protection against virus-induced death at 100 mg/kg, po qd administered 4 days after postinfection measured on day 6; type: functional, organism-based; parameters: dose 100 mg/kg
[5] = system: Vaccinia virus WR; experiment: Antiviral activity against Vaccinia virus WR ATCC VR-1354 infected through dermal scarification route in BALB/c mouse assessed as reduction of viral load in spleen at 100 mg/kg, po qd measured after 14 days postinfection by RT-PCR analysis relative to control; type: functional, organism-based; parameters: dose 100 mg/kg
[6] = system: Vaccinia virus WR; experiment: Antiviral activity against Vaccinia virus WR ATCC VR-1354 infected through intravenous route in BALB/c mouse assessed as reduction of viral load in brain at 100 mg/kg, po qd measured after 14 days postinfection by RT-PCR analysis relative to control; type: functional, organism-based; parameters: dose 100 mg/kg
[7] = system: Vaccinia virus WR; experiment: Antiviral activity against Vaccinia virus WR ATCC VR-1354 infected through percutaneous route in BALB/c mouse assessed as reduction of viral load in liver at 100 mg/kg, po qd measured after 7 days postinfection by RT-PCR analysis relative to control; type: functional, organism-based; parameters: dose 100 mg/kg
[8] = system: Vaccinia virus WR; experiment: Antiviral activity against Vaccinia virus WR ATCC VR-1354 infected through subcutaneous route in BALB/c mouse assessed as reduction of viral load in lung at 100 mg/kg, po qd measured after 3 to 5 days postinfection by RT-PCR analysis relative to control; type: functional
[9] = system: Vaccinia virus WR; experiment: Antiviral activity against Vaccinia virus WR ATCC VR-1354 infected through intraperitoneal route in BALB/c mouse assessed as reduction of viral load in spleen at 100 mg/kg, po qd measured after 5 days postinfection by RT-PCR analysis relative to control; type: functional, organism-based; parameters: dose 100 mg/kg
[10] = system: Vaccinia virus WR; experiment: Antiviral activity against Vaccinia virus WR ATCC VR-1354 infected through percutaneous route in BALB/c mouse assessed as protection against virus-induced conjunctivitis in mouse eyes at 100 mg/kg, po qd measured after 6 days postinfection; type: functional, organism-based; parameters: dose 100 mg/kg
[11] = system: Vaccinia virus WR; experiment: Antiviral activity against Vaccinia virus WR ATCC VR-1354 infected through dermal scarification route in ACAM2000 vaccinated BALB/c mouse assessed as reduction of swab virus titers at 100 mg/kg, po qd measured after 5 days postinfection by RT-PCR analysis relative to control; type: functional
[12] = system: Vaccinia virus WR; experiment: Antiviral activity against Vaccinia virus WR ATCC VR-1354 infected through dermal scarification route in BALB/c mouse assessed as reduction of viral load in liver at 100 mg/kg, po qd measured after 5 days postinfection by RT-PCR analysis relative to control; type: functional
[13] = system: Vaccinia virus WR; experiment: Antiviral activity against Vaccinia virus WR ATCC VR-1354 infected through intraperitoneal route in BALB/c mouse assessed as reduction of viral load in brain at 100 mg/kg, po qd measured after 5 days postinfection by RT-PCR analysis relative to control; type: functional, organism-based; parameters: dose 100 mg/kg
[14] = system: Vaccinia virus WR; experiment: Antiviral activity against Vaccinia virus WR ATCC VR-1354 infected through percutaneous route in BALB/c mouse assessed as inhibition of virus dissemination in brain at 100 mg/kg, po qd for 1 day by RT-PCR analysis; type: functional, organism-based; parameters: dose 100 mg/kg
[15] = system: Vaccinia virus WR; experiment: Antiviral activity against Vaccinia virus WR ATCC VR-1354 infected through dermal scarification route in BALB/c mouse assessed as reduction of viral load in lung at 100 mg/kg, po qd measured after 14 days postinfection by RT-PCR analysis relative to control; type: functional, organism-based; parameters: dose 100 mg/kg
[16] = system: Vaccinia virus WR; experiment: Antiviral activity against Vaccinia virus WR ATCC VR-1354 infected through percutaneous route in BALB/c mouse assessed as reduction of viral load in lungs at 100 mg/kg, po qd measured after 3 days postinfection by RT-PCR analysis relative to control; type: functional
[17] = system: Vaccinia virus WR; experiment: Antiviral activity against Vaccinia virus WR ATCC VR-1354 infected through percutaneous route in BALB/c mouse assessed as reduction of viral load in liver at 100 mg/kg, po qd measured after 3 days postinfection by RT-PCR analysis relative to control; type: functional
[18] = system: Vaccinia virus WR; experiment: Antiviral activity against Vaccinia virus WR ATCC VR-1354 infected through intravenous route in BALB/c mouse assessed as reduction of viral load in liver at 100 mg/kg, po qd measured after 14 days postinfection by RT-PCR analysis relative to control; type: functional, organism-based; parameters: dose 100 mg/kg
[19] = system: Vaccinia virus WR; experiment: Antiviral activity against Vaccinia virus WR ATCC VR-1354 infected through intraperitoneal route in BALB/c mouse assessed as reduction of viral load in blood at 100 mg/kg, po qd measured after 5 days postinfection by RT-PCR analysis relative to control; type: functional, organism-based; parameters: dose 100 mg/kg
[20] = system: Vaccinia virus WR; experiment: Antiviral activity against Vaccinia virus WR ATCC VR-1354 infected through dermal scarification route in BALB/c mouse assessed as reduction of viral load in liver at 100 mg/kg, po qd measured after 14 days postinfection by RT-PCR analysis relative to control; type: functional, organism-based; parameters: dose 100 mg/kg
[21] = system: Vaccinia virus WR; experiment: Antiviral activity against Vaccinia virus WR ATCC VR-1354 infected through intraperitoneal route in BALB/c mouse assessed as reduction of viral load in lung at 100 mg/kg, po qd measured after 5 days postinfection by RT-PCR analysis relative to control; type: functional, organism-based; parameters: dose 100 mg/kg
[22] = system: Vaccinia virus WR; experiment: Antiviral activity against Vaccinia virus WR ATCC VR-1354 infected through dermal scarification route in BALB/c mouse assessed as reduction of viral load in brain at 100 mg/kg, po qd measured after 5 days postinfection by RT-PCR analysis relative to control; type: functional
[23] = system: Vaccinia virus WR; experiment: Antiviral activity against Vaccinia virus WR ATCC VR-1354 infected through percutaneous route in BALB/c mouse assessed as reduction of viral load in spleen at 100 mg/kg, po qd measured after 7 days postinfection by RT-PCR analysis relative to control; type: functional, organism-based; parameters: dose 100 mg/kg
[24] = system: Vaccinia virus WR; experiment: Antiviral activity against Vaccinia virus WR ATCC VR-1354 infected through intravenous route in BALB/c mouse assessed as protection against virus-induced conjunctivitis in mouse eyes at 100 mg/kg, po qd measured after 6 days postinfection; type: functional, organism-based; parameters: dose 100 mg/kg
[25] = system: Vaccinia virus WR; experiment: Antiviral activity against Vaccinia virus WR ATCC VR-1354 infected through dermal scarification route in ACAM2000 vaccinated BALB/c mouse assessed as reduction of swab virus titers at 100 mg/kg, po qd measured after 21 days postinfection by RT-PCR analysis relative to control; type: functional

## O=C(NN1C(=O)[C@@H]2[C@@H]3C=C[C@@H]([C@H]4C[C@@H]34)[C@@H]2C1=O)c1ccc(C(F)(F)F)cc1 [TECOVIRIMAT]
[1]
  Activity: inactive
[2]
  Activity: Active
[3]
  Activity: Active
[4]
  Activity: inactive
[5]
  Activity: Active
[6]
  Activity: Active
[7]
  Activity: Active
[8]
  fold change (FC): 30
[9]
  Activity: Active
[10]
  Activity: Active
[11]
  fold change (FC): 71
[12]
  fold change (FC): 8
[13]
  Activity: Active
[14]
  Activity: inactive
[15]
  Activity: Active
[16]
  fold change (FC): 4
[17]
  fold change (FC): 45
[18]
  Activity: Active
[19]
  Activity: Active
[20]
  Activity: Active
[21]
  Activity: Active
[22]
  fold change (FC): 3
[23]
  Activity: Active
[24]
  Activity: Active
[25]
  fold change (FC): 3900

Source: ChEMBL document CHEMBL1649270, “ST-246 inhibits in vivo poxvirus dissemination, virus shedding, and systemic disease manifestation” (2009)
